Assays:
[1] = system: Luc-eGFP mRNA; test: Determination of encapsulation efficiency of mRNAs (Quant-iT RiboGreen RNA kit); assay type: physicochemical
Description: (§1) In this example, the total lipid phase concentration of 1 mg/mL was formulated in anhydrous ethanol at the molar ratio of ionizable lipid (Compound 1, Compound 11 or Compound 12):helper lipid (DSPC or DOPE):cholesterol:DMG-PEG2000=50%:10%:38.5%:1.5%. Luc-eGFP mRNA at the corresponding concentration was dissolved in 50 mM citric acid buffer with an aqueous buffer solution of pH4.0. The mass ratio of mRNA to the total lipids was 1:30.
(§2) LNPs were prepared using the formulation-screening chip from Micro & Nano at a total flow rate of 12 ml/min and a flow rate ratio of 1:3 between the lipid phase and the aqueous phase. The lipid nanoparticles were collected and dialyzed with PBS overnight at 4° C. to remove ethanol and acidic buffer salts. The dialysate volume was 400 times or more the sample volume. The dialyzed sample was filtered through a 0.2-μm filter membrane. Lipid nanoparticles could also be prepared by other methods, such as injection mixing, in addition to using microfluidic chips. After being dialyzed and filtered, the sample was concentrated using a 10 kDa cellulose ultrafiltration membrane. The centrifugation parameter was 1000 g to 2000 g, and the centrifugation time was 30 min to 1 hour. The centrifugation temperature was 4° C.
For mRNA-encapsulated lipid nanoparticles, the assay specified in the Quant-iT™ RiboGreen® RNA kit could be employed. The specific operations were as follows: The sample was diluted 10 to 20 folds with a TE buffer solution (10 mM Tris-HCl, 1 mM EDTA, pH 7.5). An equal volume of demulsifier (2% Triton X-100) was added to the sample to be tested and then the solution was diluted 10 to 20 folds again. The RiboGreen® reagent was diluted 100 folds in the TE buffer solution, and 100 μl of the diluted solution was added to a 96-well plate. 100 μl of the sample to be tested was added to the corresponding 96-well plate. Meanwhile, a standard curve was plotted using the mRNA standard. The fluorescence value at 520 nm excited by 480 nm excitation light was read using a microplate reader. The concentrations of the encapsulated and free mRNAs were calculated based on the standard curve.
(§3) The nucleic acid delivery efficiency of lipid nanoparticles was characterized by observing the fluorescence expression in mice. The lipid nanoparticles were prepared at a molar ratio of ionizable lipid (Compound 17, Compound 15, Compound 18, Compound 2 or MC3):DSPC:cholesterol:DSPE-PEG2000=50%:10%:39.5%:0.5%. Female C57/BL6 mice weighing 18 to 22 g were selected. After acclimation, the Luc-eGFP mRNA-encapsulated lipid nanoparticles were injected subretinally into mice (both eyes) at a dose of 0.9 μg (±10%) mRNA (1 μl, in a sterile PBS solution) per eye. In order to observe the expression of luciferase, the luciferase substrate was dissolved into a sterile PBS solution and prepared into a solution at a concentration of 30 mg/ml.

[2] = Determination of particle size and polydispersity index of lipid nanoparticles (Malvern particle size analyzer); assay type: physicochemical
Description: as §1, §2
2. Determination of particle size: The particle size and polydispersity index (PDI) of the prepared lipid nanoparticles were measured using a Malvern particle size analyzer.
as §3

[3] = system: luciferase; test: In vivo delivery of luciferase mRNA in animals, tail vein injection, chemiluminescence imaging; parameters: species or system Female C57/BL6 mice; details: Luc-eGFP mRNA 0.5 mg/kg, mice, 6 h after injection
Description: as §1
The nucleic acid delivery efficiency of lipid nanoparticles was characterized by observing the fluorescence expression in mice. The Luc-eGFP mRNA-encapsulated lipid nanoparticles prepared in Example 9 were injected at a certain dose into mice via the tail vein. Female C57/BL6 mice weighing 18 to 22 g were randomly grouped, with two mice in each group. After acclimation, Luc-eGFP mRNA-encapsulated LNPs (in a sterile PBS solution) were injected via the tail vein at a dose of 0.5 mg/kg (0.5 mg here referring to the dose of mRNA). In order to observe the expression of luciferase, the luciferase substrate was dissolved into a sterile PBS solution and prepared into a solution at a concentration of 30 mg/ml.
(§4) Six hours after injection of LNPs, 150 ul of luciferase substrate solution was injected intraperitoneally into each mouse. The mice were allowed to stand for 5 min, and then anesthetized for 3 min in a carbon dioxide box. After anesthesia, the mice were put in a small animal in vivo imager for imaging.

[4] = system: luciferase; test: Subretinal injection in mice, chemiluminescence from Luc-eGFP mRNA delivered by lipid nanoparticles; assay type: in vivo, Female C57/BL6 mice; details: LNP ionizable lipid:DSPC:cholesterol:DSPE-PEG2000 = 50:10:39.5:0.5, both eyes, 0.9 μg (±10%) mRNA per eye
Description: as §3
as §4, with “Imaging in mice: 18” for “Six”, “drug administration,” for “injection of LNPs,”, “μl” for “ul”

[5] = LNP with helper lipid DOPE, ionizable lipid:helper lipid:cholesterol:DMG-PEG2000 = 50:10:38.5:1.5, Luc-eGFP mRNA:total lipids 1:30
[6] = LNP with helper lipid DSPC, ionizable lipid:helper lipid:cholesterol:DMG-PEG2000 = 50:10:38.5:1.5, Luc-eGFP mRNA:total lipids 1:30
[7] = LNP ionizable lipid:DSPC:cholesterol:DSPE-PEG2000 = 50:10:39.5:0.5, Luc-eGFP mRNA

Compound | Nucleic Acid Encapsulation Efficiency [1, 5] | Nucleic Acid Encapsulation Efficiency [1, 6] | PDI [2, 5] | Particle Size [2, 5] | PDI [2, 6] | Particle Size [2, 6] | Luminous Intensity 6 h ([3]; LNP with helper lipid DOPE) | Luminous Intensity 6 h ([3]; LNP with helper lipid DSPC) | Nucleic Acid Encapsulation Efficiency [1, 7] | Luminous Intensity 18 h [4] | PDI [2, 7] | Particle Size [2, 7]
CCCCCCCCC(CCCCCC)C(=O)OCCCCCCN(CCCCCCOC(=O)C(CCCCCC)CCCCCCCC)CCOC(=O)NCCN(CC)CC (stereo not shown) [Compound 1] | 95.42% | 93.01% | 0.082 | 99.86 nm | 0.135 | 111.7 nm | 1.6E+9 p/s/cm^2/sr | 3.4E+8 p/s/cm^2/sr |  |  |  | 
CCCCCCCCC(CCCCCC)C(=O)OCCCCCCN(CCCCCCOC(=O)C(CCCCCC)CCCCCCCC)CCOC(=O)NCCN(C)CC (stereo not shown) [Compound 2] |  |  |  |  |  |  |  |  | 99.3% | 2E+8 p/s/cm^2/sr | 0.19 | 147.2 nm
CCCCCCCCC(C)C(=O)OCCCCCCN(CCCCCCOC(=O)C(CCCCCC)CCCCCCCC)CCOC(=O)NCCN(CC)CC (stereo not shown) [Compound 11] |  | 97.13% |  |  | 0.215 | 96.88 nm |  | 7.2E+7 p/s/cm^2/sr |  |  |  | 
CCCCCCCCC(CCCC)C(=O)OCCCCCCN(CCCCCCOC(=O)C(CCCCCC)CCCCCCCC)CCOC(=O)NCCN(CC)CC (stereo not shown) [Compound 12] |  | 97.58% |  |  | 0.22 | 123 nm |  | 3.1E+8 p/s/cm^2/sr |  |  |  | 
CCCCCCCCCOC(=O)CCCCCCCN(CCCCCCCC(=O)OC(CCCCCCCC)CCCCCCCC)CCOC(=O)NCCN(C)CC [Compound 15] |  |  |  |  |  |  |  |  | 98.2% | 2.6E+7 p/s/cm^2/sr | 0.22 | 149.7 nm
CCCCCCCCCOC(=O)CCCCCCCN(CCCCCCCC(=O)OC(CCCCCCCC)CCCCCCCC)CCOC(=O)NCCCN(C)C [Compound 17] |  |  |  |  |  |  |  |  | 99.4% | 3.4E+8 p/s/cm^2/sr | 0.36 | 90.31 nm
CCCCCCCCCOC(=O)CCCCCCCN(CCCCCCCC(=O)OC(CCCCCCCC)CCCCCCCC)CCOC(=O)NCCN(CC)CC [Compound 18] |  |  |  |  |  |  |  |  | 96.0% | 1E+7 p/s/cm^2/sr | 0.14 | 121.7 nm
CCCCC/C=C\C/C=C\CCCCCCCCC(CCCCCCCC/C=C\C/C=C\CCCCC)OC(=O)CCCN(C)C [MC3, DLin-MC3-DMA, reference compound] |  |  |  |  |  |  |  | 1.35E+8 p/s/cm^2/sr | 96.6% | 5E+6 p/s/cm^2/sr | 0.24 | 149.0 nm
